# Assay results: patent US20100197584A1, “USE OF CURCUMIN TO BLOCK BRAIN TUMOR FORMATION IN MICE” (Research Foundations of the City University of- New York, priority 2007, published 2010)
# Legend:
# [1] = Permeability of the blood-brain barrier to curcumin (HPLC of brain after tail vein injection); assay type: in vivo, mouse
# Method: A curcumin solution (200 μl of 667 μM curcumin in PBS containing 3% DMSO) was injected through the tail vein of each mouse, the mice were sacrificed after 15 min, 30 min, and 2 hours, and brain regions (forebrain, hippocampus, and hypothalamus) as well as blood were collected for analysis. Each tissue fraction was diluted into 300 μl of water, homogenized, and then diluted with 700 μl of acetonitrile. Proteins and other insoluble substances were separated by centrifugation at 8000 rpm in a table-top Eppendorf microcentrifuge, and the supernatants were transferred to fresh tubes and then evaporated by blowing in nitrogen gas. The blood (100 μl) was diluted with 40 μl EDTA (500 mM) and 160 μl of water. This mixture was diluted with 700 μl of actonitrile, vortexed, protein and debris separated by centrifugation and then the supernatant evaporated under nitrogen. The residues obtained were dissolved in 50 μl of acetonitrile:water (70:30) and 30 μl of this solution injected for HPLC analysis on a C18 reverse-phase column. A standard 0.1 mM solution of curcumin dissolved in acetonitrile:water (70:30) was injected for comparison. The mobile phase was a 30-70% gradient of acetonitrile in water containing 0.1% trifluoroacetic acid (TFA). Curcumin eluted as a closely spaced triplet with the strongest peak eluting at 12.8 min.
# [2] = test system: A549 (human lung cancer) cells; assay: Cell viability assay using MTT, A549; assay type: cell-based; conditions: 25 μM and 50 μM, 48 h or 96 h, versus control cells (FIG. 6d)
# Method: (§1) Cells. B16F10 (mouse melanoma), GL261 (mouse glioma), HOG (human oligodendroglioma), A549 (human lung cancer), and N18 (mouse neuroblastoma) cells were cultured separately in DMEM containing 10% (v/v) fetal bovine serum and 1% (v/v) penicillin-streptomycin (PS) and allowed to grow to 40% confluence in a 96-well plate.
# (§2) Curcumin Treatment. Two hours before drug treatment, the medium in each well was replaced with 200 μl Neurobasal medium supplemented with 2% (v/v) B27 and 1% (v/v) PS (Drug-treatment Medium). A stock solution (40 mM) of curcumin was prepared in sterile dimethyl sulfoxide (DMSO) (Example 1). Through serial dilution of each stock solution in Drug-treatment Medium, the following concentrations were obtained: 20 μM and 50 μM (for caspase 3/7 assays) or 25 μM and 50 μM (for MTT assays). […] Additionally, the background absorbance was determined from parallel wells containing only the Drug-treatment Medium plus a particular concentration of the drug (no cells).
# (§3) Cell Viability Assay Using MTT (3-(4,5-Dimethylthiazolyl-2)-2,5-Diphenyltetrazolium Bromide). […] Absorbance was measured at 570 nm using a 96-well multi scanner auto-reader with the extraction buffer used as blank. For curcumin samples, the absorbance obtained from the corresponding curcumin plus medium samples was subtracted.
# [3] = test system: B16F10 (mouse melanoma) cells; assay: Cell viability assay using MTT, B16F10; assay type: cell-based; conditions: 25 μM and 50 μM, 48 h or 96 h, versus control cells (FIG. 6a)
# Method: as §1, §2, §3
compound,measurement,setting,value
COc1cc(/C=C/C(=O)CC(=O)/C=C/c2ccc(O)c(OC)c2)ccc1O [curcumin],curcumin in mouse brain (HPLC trace),[1]; 15 minutes after tail vein injection of 200 μl of 667 μM curcumin (FIG. 7b),presence of curcumin
same,curcumin in mouse brain (HPLC trace),[1]; 30 minutes after tail vein injection of 200 μl of 667 μM curcumin (FIG. 7c),presence of curcumin
same,time by which curcumin was completely metabolized,"[1]; mouse brain, after tail vein injection of 200 μl of 667 μM curcumin (FIG. 7d)",≤ 2 h
same,cell viability (MTT),[2],dramatic decrease
same,cell viability (MTT),[3],dramatic decrease
